Measurements as given in paper PMC9959553, “Promising Antifungal Molecules against Mucormycosis Agents Identified from Pandemic Response Box®: In Vitro and In Silico Analyses” (Journal of Fungi, 2023).

The molecules below were run on R. oryzae UCP1295 (assay: Screening of the Pandemic Response Box library at 5 µM). Details: 48 h, Table S1, mean of the four values.
Type: cell-based, Rhizopus oryzae
Description: Rhizopus oryzae UCP is the most prevalent Mucorales species in human infections and was used as a reference strain to screen the Pandemic Response Box® library. Screening was performed according to Rollin-Pinheiro and colleagues. Each compound was diluted in RPMI 1640 medium (Sigma Chemical Co., St. Louis, MO, USA), supplemented with 2% glucose and buffered with 3-(N-morpholino) propanesulfonic acid (MOPS) (Sigma Chemical Co., St. Louis, MO, USA) (0.165 mol/L, pH 7.2, from here on referred to as ‘supplemented RPMI’) to reach 5 μM in 96-well microtiter plates. Posaconazole (5 μM) and supplemented RPMI containing 1% DMSO were used as controls (both from Sigma Chemical Co., St. Louis, MO, USA). Conidia (2 × 10^5/mL) were added and incubated for 48 h at 37 °C in a 5% CO2 atmosphere. […] An inhibition of at least 60% was defined as the cut-off to select the promising drugs with antifungal activity against the Rhizopus species.

| Structure (SMILES) | % of growth inhibition, Mean [%] |
| --- | --- |
| O=[N+]([O-])c1cn(Cc2nc(O)nc(O)c2Br)cn1 [MMV1579777] | -6.3 |
| CC(Oc1ccc(Cl)cc1Cl)C(=O)NCc1ccc2c(c1)OCO2 (stereo not drawn) [MMV1578925] | -25.4 |
| CC(C)(C)c1cccc(-c2nc3cc(C(=N)N)ccc3[nH]2)c1O [MMV1581548] | -15.8 |
| CC(C)(C)c1ccc(OCCn2nc(C(=O)O)c3ccccc3c2=O)cc1 [MMV1634387] | -15.4 |
| Nc1nnc(-c2ccc(Cl)cc2)s1 [MMV046261] | -8.7 |
| NNC(=O)c1ccncc1 [MMV002169] | -5.4 |
| c1cc(CN2CCCNCCNCCCNCC2)ccc1CN1CCCNCCNCCCNCC1 [MMV1580502] | 52.2 |
| O=C(Nc1cccc(C2=NCCN2)c1)c1ccc(-c2ccc(C(=O)Nc3cccc(C4=NCCN4)c3)cc2)cc1 [MMV1580853] | -34.0 |
| CC[C@H](CO)NCCN[C@H](CC)CO [MMV687801] | -13.2 |
| C=C(C)n1c(=O)n(Cc2ccccc2C)c2ccccc21 [MMV1579354] | -31.3 |
| N#CCN1C(=O)COc2cc(F)c(N3C(=O)c4ccccc4C3=O)cc21 [MMV1579785] | -18.3 |
| Clc1cc(Cl)c2c(c1)CCc1ccccc1C2n1ccnc1 (stereo not drawn) [MMV1634492] | -30.6 |
| Cc1nc2ccc(Oc3ccccc3)cc2c2c1CCN2CCc1ccccc1 [MMV1634399] | -16.3 |
| COc1cc2c(O)c3c(c(-c4ccc5c(c4)OCO5)c2cc1OC)C(=O)OC3 [MMV102270] | -33.2 |
| Nc1nc(N)c2c(Sc3ccccc3)cccc2n1 [MMV021759] | -3.3 |
| CCC(C)NCC(O)Cn1c2ccc(Cl)cc2c2cc(Cl)ccc21 (stereo not drawn) [MMV1578570] | -22.7 |
| Nc1cccc(-c2nc(N)nc(NC3Cc4ccccc4C3)n2)c1 [MMV1581555] | -6.9 |
| Nc1nc(=O)[nH]cc1F [MMV004508] | -32.5 |
| O=C(O)c1ccc(-n2nc(-c3ccccc3O)nc2-c2ccccc2O)cc1 [MMV640014] | -17.8 |
| CCOC(=O)/C=C/[C@H](C[C@@H]1CCNC1=O)NC(=O)[C@H](CC)n1cccc(NC(=O)c2cc(C)on2)c1=O [MMV1782112] | -11.8 |
| O=C(NCc1ncc(C(F)(F)F)cc1Cl)c1c(Cl)cccc1Cl [MMV689401] | -36.5 |
| COc1ccc(NC(=O)CC2Sc3ncnn3C2=O)cc1 (stereo not drawn) [MMV1483032] | -13.1 |
| O=C(O)[C@H]1C2CCC(CC2)[C@@H]1Nc1nc(-c2c[nH]c3ncc(F)cc23)ncc1F [MMV1593516] | -10.6 |
| CC(C)(C)NC(=O)N[C@H](C(=O)N1C[C@H]2[C@@H]([C@H]1C(=O)NC(CC1CCC1)C(=O)C(N)=O)C2(C)C)C(C)(C)C (stereo partly drawn) [MMV1580497] | -8.5 |
| Nc1nc2c(Cc3cccnc3)c[nH]c2c(=O)[nH]1 [MMV1782355] | -12.7 |

| Structure (SMILES) | % of growth inhibition, Mean [%] |
| --- | --- |
| c1ccc(-c2nnc3c4ccccc4c(N4CCNCC4)nn23)cc1 [MMV1581551] | -11.4 |
| CCc1cc(O)c(Oc2cccnc2N)cc1F [MMV1580854] | -36.7 |
| CCc1nc2ccccn2c1C(=O)NCc1ccccc1 [MMV1663457] | -0.4 |
| O=C1NC(=O)C(Br)=C1Br [MMV1578554] | -14.5 |
| CCNC(=O)Nc1cc2c(-c3ccnc(C)c3)ccc(CNC(=O)OC)c2cn1 [MMV1634390] | -15.7 |
| CCCCOC(=O)Nc1cc2nc(C3CCCCC3)[nH]c2cc1N(CC)CC [MMV1578842] | -0.4 |
| CONC(=N)c1ccc(-c2ccc(-c3ccc(C(=N)NOC)cc3)o2)cc1 [MMV000059] | -38.5 |
| CC(C)Nc1ncnc2c1cnn2-c1ccc(Cl)cc1 [MMV108465] | -32.3 |
| Cc1nc2ccc(Cl)cc2c(-c2ccccc2)c1CC(=O)O [MMV1580801] | -8.7 |
| Oc1cc(-c2cccc3ccccc23)[nH]n1 [MMV422940] | -11.7 |
| O=S(=O)(Nc1ccc(-n2cccc2)cc1)c1ccc(Cl)c(Cl)c1 [MMV1505642] | -4.1 |
| O=C(c1nc2c(C(F)(F)F)cc(C3CC3)cn2c1Cl)N1CCN([C@H]2CC[C@H](O)CC2)C(=O)C1 [MMV1634396] | -11.9 |
| C[C@H]1CC[C@]2(NC1)O[C@H]1C[C@H]3[C@@H]4CC[C@H]5C[C@@H](O)CC[C@]5(C)[C@H]4CC[C@]3(C)[C@H]1[C@@H]2C.Cl [MMV003069] | -12.1 |
| Nc1nc(-c2ccccc2)nc2[nH]nc(Nc3ccc(C(F)(F)F)cc3)c12 [MMV1633968] | 4.3 |
| Cc1cc(C)n2nc(C(=O)NS(=O)(=O)c3c(C)cccc3OC(F)(F)F)nc2n1 [MMV1782402] | -19.8 |
| O=C(NCc1ccc2c3c(cccc13)C(=O)N2)c1cccs1 [MMV1341773] | -28.3 |
| C=C(C)[C@@H]1CC[C@]2(C(=O)O)CC[C@]3(C)[C@H](CC[C@@H]4[C@@]5(C)CC[C@H](O)C(C)(C)[C@@H]5CC[C@]43C)[C@@H]12 [MMV638198] | 43.5 |
| CS(=O)(=O)c1ccc(Oc2ccc(Cl)cc2)cc1 [MMV1634404] | 4.1 |
| NC1C2CC3CC(C2)CC1C3 (stereo not drawn) [MMV180402] | 3.0 |
| CCCCc1ccc(-c2nc(C)c(C(=O)OC)s2)cc1 [MMV1634392] | -3.4 |
| Cc1ccc(N2CCC(CCOc3ccc(S(C)(=O)=O)cc3)CC2)nn1 [MMV1634394] | 3.3 |
| COc1ccccc1CN[C@H]1C2CCN(CC2)[C@H]1C(c1ccccc1)c1ccccc1 [MMV690480] | -1.8 |
| C=C[C@]1(C)C[C@@H](OC(=O)CS[C@@H]2C[C@H]3CC[C@@H](C2)N3C)[C@]2(C)[C@H](C)CC[C@]3(CCC(=O)[C@H]32)[C@@H](C)[C@@H]1O [MMV1633674] | -19.9 |
| CC(=O)N1CCN(c2ccc(OC[C@@H]3CO[C@@](Cn4ccnc4)(c4ccc(Cl)cc4Cl)O3)cc2)CC1 [MMV637533] | -5.2 |
| CC(=O)N[C@H](C)C(=O)N[C@H](Cc1ccccc1)C(=O)O [MMV1580845] | -37.6 |

| Structure (SMILES) | % of growth inhibition, Mean [%] |
| --- | --- |
| O=C(NC1CCCc2c1[nH]c1ccc(Cl)cc21)c1ccccn1 (stereo not drawn) [MMV690621] | -11.4 |
| CC[C@H](NC(=O)[C@H](C)NC)C(=O)N1C[C@@H](O)C[C@H]1Cc1c(-c2[nH]c3cc(F)ccc3c2C[C@@H]2C[C@H](O)CN2C(=O)[C@H](CC)NC(=O)[C@H](C)NC)[nH]c2cc(F)ccc12 [MMV1557856] | 3.0 |
| COc1ccccc1NC(=O)c1ccccc1Sc1ccc([N+](=O)[O-])cc1 [MMV1580484] | -7.7 |
| Cn1cncc1[C@@](N)(c1ccc(Cl)cc1)c1ccc2c(c1)c(-c1cccc(Cl)c1)cc(=O)n2C [MMV658803] | -24.4 |
| FC(F)(F)c1cc(C(F)(F)F)c2ccc3nc(-c4nnco4)cn3c2n1 [MMV690555] | -25.6 |
| O=[N+]([O-])c1ccc2c(CCc3c[nH]c4ccccc34)c[nH]c2c1 [MMV1593539] | -2.0 |
| COc1ccc(NS(=O)(=O)c2ccc(Cl)s2)cn1 [MMV1580499] | -3.0 |
| Cc1ccc(S(=O)(=O)Nc2cccc3cccnc23)cc1 [MMV233495] | -0.4 |
| COC(=O)Nc1nc2c(C)cccc2[nH]1 [MMV1782387] | -30.6 |
| O=C(O)CSc1cc(NS(=O)(=O)c2cccc3cccnc23)c2ccccc2c1O [MMV218827] | -3.2 |
| COC(=O)Nc1nc2cc(Sc3ccccc3)ccc2[nH]1 [MMV003143] | -14.1 |
| O=C(Nc1ccc(N2CCN(C(=O)c3ccccc3)CC2)cc1)c1ccc2c(c1)OCO2 [MMV1580505] | -9.9 |
| COc1cc(NS(=O)(=O)c2ccc(C)cc2)c2ncccc2c1 [MMV098836] | 48.1 |
| Cc1cc(-c2ccccc2)c(C(=O)C(=O)Nc2ccc(N3CCN(c4ncc(F)cn4)CC3)cc2)n1C [MMV1782354] | -38.2 |
| Cc1c[nH]c(=O)nc1NCc1ccccc1 [MMV1582489] | -18.8 |
| Cc1ncc([N+](=O)[O-])n1CC(O)CN1CCOCC1 (stereo not drawn) [MMV1613562] | -0.4 |
| C[C@H](NC(CC(=O)c1ccccc1C(F)(F)F)C(=O)O)c1ccccc1 (stereo partly drawn) [MMV1579778] | -13.5 |
| CN(C)CCCNC(=O)c1ccc(-c2cc(O)c3ncccc3c2)cc1 [MMV1580488] | 37.5 |
| COc1ccc(C[C@@H](C)[C@@H](C)Cc2ccc(OC)c(OC)c2)cc1OC [MMV1581036] | -8.8 |
| O=C(NCCN1CCCCC1)c1cccc(C(F)(F)F)c1 [MMV1633964] | -2.0 |
| c1ccc(Cn2c(-c3ccccn3)nc3ccccc32)cc1 [MMV1578886] | -11.3 |
| Fc1ccc2c(/C=C/c3nnn[nH]3)c[nH]c2c1 [MMV1578563] | -0.5 |
| CC(C)=CCC/C(C)=C\CNCCNC1C2CC3CC(C2)CC1C3 (stereo not drawn) [MMV687273] | -3.3 |
| NS(=O)(=O)c1ccc(NC(=O)NC(c2ccccc2)c2ccccc2)cc1 [MMV1579776] | -24.2 |
| CC(Cc1ccccc1)C(=O)Nc1ccc(Cl)cc1C(=O)O (stereo not drawn) [MMV1579781] | -32.3 |
